Assay results taken from ChEMBL document CHEMBL5143633, “Isolation, Structure Determination, and Semisynthesis of Diphenazine Compounds from a Deep-Sea-Derived Strain of the Fungus Cystobasidium laryngis and Their Biological Activities” (J Nat Prod, 2022).
pIC50: −log10 of the molar value. Counter-ions that a name gives are not always drawn.

Key:
[1] = system: NUGC-3; test: Cytotoxicity against human NUGC-3 cells assessed as cell growth inhibition incubated for 48 hrs by SRB method; assay type: functional, cell-based; conditions: NUGC-3, 48 h
[2] = system: HCT-15; test: Cytotoxicity against human HCT-15 cells assessed as cell growth inhibition incubated for 48 hrs by SRB method; assay type: functional, cell-based; conditions: HCT-15, 48 h
[3] = system: NCI-H23; test: Cytotoxicity against human NCI-H23 cells assessed as cell growth inhibition incubated for 48 hrs by SRB method; assay type: functional, cell-based; conditions: NCI-H23, 48 h
[4] = system: PC-3; test: Cytotoxicity against human PC-3 cells assessed as cell growth inhibition incubated for 48 hrs by SRB method; assay type: functional, cell-based; conditions: PC-3, 48 h
[5] = system: ACHN; test: Cytotoxicity against human ACHN cells assessed as cell growth inhibition incubated for 48 hrs by SRB method; assay type: functional, cell-based
[6] = system: BV-2; test: Anti-neuroinflammatory activity in mouse BV-2 cells assessed as inhibition of LPS-induced NO production pretreated for 1 hr followed by LPS addition measured after 24 hrs by Griess reagent based assay; assay type: functional, cell-based
[7] = system: MDA-MB-231; test: Cytotoxicity against human MDA-MB-231 cells assessed as cell growth inhibition incubated for 48 hrs by SRB method; assay type: functional, cell-based; conditions: MDA-MB-231, 48 h
[8] = system: BV-2; test: Cytotoxicity against LPS induced mouse BV-2 cells assessed as reduction in cell viability at >1 uM pretreated for 1 hr followed by LPS addition measured after 24 hrs by MTT assay; assay type: toxicity, cell-based; conditions: bv-2, 25 h

| Structure (SMILES) | pIC50 [1] | pIC50 [2] | pIC50 [3] | pIC50 [4] | pIC50 [5] | pIC50 [6] | pIC50 [7] | Activity [8] |
| --- | --- | --- | --- | --- | --- | --- | --- | --- |
| C[C@@H](O)c1cccc2nc3c(C(=O)O)cccc3nc12 | < 5.00 | < 5.00 | < 5.00 | < 5.00 | < 5.00 | 4.80 | < 5.00 |  |
| C[C@H](c1cccc2nc3c(C(=O)O)cccc3nc12)c1ccc(C(=O)O)c2nc3cccc([C@@H](C)O)c3nc12 | < 5.00 | < 5.00 | < 5.00 | < 5.00 | < 5.00 | 3.77 | < 5.00 |  |
| CC(=O)c1cccc2nc3c(C(=O)O[C@H](C)c4cccc5nc6c(C(=O)O)cccc6nc45)cccc3nc12 | 7.46 | 7.22 | 7.37 | 7.33 | 7.14 |  | 7.28 |  |
| C[C@@H](c1cccc2nc3c(C(=O)O)cccc3nc12)c1ccc(C(=O)O)c2nc3cccc([C@@H](C)O)c3nc12 | < 5.00 | < 5.00 | < 5.00 | < 5.00 | < 5.00 | 4.05 | < 5.00 |  |
| CC(=O)c1cccc2nc3c(C(=O)O)ccc([C@H](C)c4cccc5nc6c(C(=O)O)cccc6nc45)c3nc12 | < 5.00 | < 5.00 | < 5.00 | < 5.00 | < 5.00 | 4.46 | < 5.00 |  |
| C[C@@H](O)c1cccc2nc3c(C(=O)O[C@H](C)c4cccc5nc6c(C(=O)O)cccc6nc45)cccc3nc12 | 8.11 | 8.00 | 8.00 | 8.00 | 7.85 | 6.52 | 8.00 | Toxic |
| C[C@@H](OC(=O)c1ccccc1N)c1cccc2nc3c(C(=O)O)cccc3nc12 | < 5.00 | < 5.00 | < 5.00 | < 5.00 | < 5.00 |  | < 5.00 |  |
| C[C@@H](c1cc(C(=O)O)c2nc3cccc([C@@H](C)O)c3nc2c1)c1cccc2nc3c(C(=O)O)cccc3nc12 | < 5.00 | < 5.00 | < 5.00 | < 5.00 | < 5.00 |  | < 5.00 |  |
| C[C@H](c1cc([C@@H](C)O)c2nc3cccc(C(=O)O)c3nc2c1)c1cccc2nc3c(C(=O)O)cccc3nc12 | < 5.00 | < 5.00 | < 5.00 | < 5.00 | < 5.00 |  | < 5.00 |  |
| COc1cccc2c1C(=O)c1c(O)c3c(c(O)c1C2=O)C[C@@](O)(C(=O)CO)C[C@@H]3O[C@H]1C[C@H](N)[C@H](O)[C@H](C)O1 [DOXORUBICIN HYDROCHLORIDE] | 6.82 | 6.77 | 6.80 |  | 6.77 |  | 6.82 |  |
